The assay addresses T1, EGFR (Homo sapiens, UniProt P00533).
T1 construct: started at nucleotide 2189 (corresponding to amino acid 667) and ended at the termination codon; made in house; host or cells: Sf9 insect cells (baculovirus)
Briefly: EGFR Kinase Assay (GST-EGFR, 33P-ATP, Streptavidin Flashplate). Conditions: GST-EGFR intracellular portion, 5 μM ATP. In kind it is biochemical. From the text:
The EGFR kinase used was a fusion of Glutathione-S-Transferase (GST) and a PCR amplified intracellular portion of EGFR (NM_005228). The intracellular portion of EGFR started at nucleotide 2189 (corresponding to amino acid 667) and ended at the termination codon. The portion was PCR amplified with primers that added the lambda attB sequences to each end, recombined into an entry vector, then into a GST destination vector (as described in Gateway Technologies Manual by Invitrogen Corporation, Carlsbad, Calif.).
The destination vector was recombined in the DH10BAC strain of bacteria to produce a bacmid. The bacmid was transfected into Sf 9 cells and the supernatant containing the baculovirus was collected. The GSTEGFR protein was purified using large cultures of Sf 9 cells infected with stock virus. After an appropriate period of time, the cells were collected and lysed. The GSTEGFR was then purified from the lysate on Glutathione-Sepharose columns (as described by Amersham Biosciences, Buckinghamshire, United Kingdom).
The EGFR substrate was prepared by biotinylating polyGluTyr (128 mg) (Sigma, St. Louis, Mo.) in a 1×PBS buffer incubated together with a 12-fold molar excess of Sulfo-NHS-LC-Biotin on ice for at least 2 hrs. The free biotin was separated from the biotinylated polyGluTyr on a gel filtration column.
A mixture of a 10× kinase buffer (500 mM Tris at pH 8.0, 100 mM Magnesium Chloride and 1 mM Sodium Vanadate), DTT (1 mM final from 500 mM stock), ATP (5 μM final from 10 mM stock), biotinylated polyGluTyr (10 μg/μL stock), γ-^33P ATP (10 μCi/μL stock) and water was added to each well (90 μL/well) of a Streptavidin Flashplate (Perkin Elmer, Wellesley, Mass.).
Test compound in 100% DMSO (2 μL) was added to the appropriate wells. Diluted GSTEGFR (1:300 dilution in 50 mM Tris at pH 8.0 and 0.1% bovine serum albumin) (10 μL) was added to the wells to initiate the reactions.
The plates were incubated at 30° C. for 1 hr with shaking. The reacted contents were removed and the plates were sequentially washed three times with a 1×PBS stop buffer (300 μL without Magnesium and Calcium) and 100 mM EDTA. After the final wash, the same stop buffer (200 μL) was added to the wells. The plates were then sealed and read on the TopCount scintillation counter.
Test compounds were assayed in triplicate at 16 concentrations at half-log dilutions starting at 200 uM. A maximum and minimum signal for the assay was determined on each plate. The percent inhibition of a test compound was calculated accord to the formula
For a series of test concentrations, the IC50 was derived by graphing percent inhibition against the log of the concentrations tested for a given compound. For those compounds without an IC50, the percent inhibition results are shown at a test concentration of 2 μM.

As usually defined, the IC50 is the concentration at which inhibition is half-maximal. High values mean weaker potency in that assay, low ones greater potency in that assay.

T1 sequence (P00533 667-1210 limits assumed): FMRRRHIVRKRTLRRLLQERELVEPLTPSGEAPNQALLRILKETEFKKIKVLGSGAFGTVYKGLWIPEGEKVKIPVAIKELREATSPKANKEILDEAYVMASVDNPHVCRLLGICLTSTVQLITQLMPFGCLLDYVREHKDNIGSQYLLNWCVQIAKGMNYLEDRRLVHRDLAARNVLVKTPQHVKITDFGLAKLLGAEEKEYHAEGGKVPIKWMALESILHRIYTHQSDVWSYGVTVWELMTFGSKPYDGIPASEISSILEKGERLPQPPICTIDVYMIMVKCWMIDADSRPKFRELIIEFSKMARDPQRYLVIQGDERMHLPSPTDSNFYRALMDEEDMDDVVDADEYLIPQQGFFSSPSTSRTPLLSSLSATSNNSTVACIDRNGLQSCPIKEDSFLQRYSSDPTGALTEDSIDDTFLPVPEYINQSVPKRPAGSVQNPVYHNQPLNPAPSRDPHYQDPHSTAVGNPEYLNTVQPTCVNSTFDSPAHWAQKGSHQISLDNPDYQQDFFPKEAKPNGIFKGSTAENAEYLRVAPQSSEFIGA

Regarding `CN(C)Cc1ccc(Nc2nc3ncc(C#N)c(Nc4ccc(F)c(Cl)c4)c3s2)cc1` [Cpd 3, 7-(3-chloro-4-fluoro-phenylamino)-2-(4-dimethylaminomethyl-phenylamino)-thiazolo[4,5-b]pyridine-6-carbonitrile], the 50% inhibitory concentration (IC50) amounted to 43.7 nM.

`COc1ccc(Nc2nc3ncc(C#N)c(Nc4ccc(F)c(Cl)c4)c3s2)cn1` [Cpd 26, 7-(3-chloro-4-fluoro-phenylamino)-2-(6-methoxy-pyridin-3-ylamino)-thiazolo[4,5-b]pyridine-6-carbonitrile] showed a 50% inhibitory concentration (IC50) of 158 nM.

Compound `CN(Cc1ccc(Nc2nc3ncc(C#N)c(Nc4ccc(F)c(Cl)c4)c3s2)cc1)C[C@H]1CCCO1` [Cpd 14, 7-(3-chloro-4-fluoro-phenylamino)-2-[(4-{methyl-[(2R)-tetrahydro-furan-2-ylmethyl]-amino}-methyl)-phenylamino]-thiazolo[4,5-b]pyridine-6-carbonitrile] displayed an IC50 of 29.3 nM.

For `CN(Cc1ccc(Nc2nc3ncc(C#N)c(Nc4ccc(F)c(Cl)c4)c3s2)cc1)C[C@@H]1CCCO1` [Cpd 15, 7-(3-chloro-4-fluoro-phenylamino)-2-[(4-{methyl-[(2S)-tetrahydro-furan-2-ylmethyl]-amino}-methyl)-phenylamino]-thiazolo[4,5-b]pyridine-6-carbonitrile], 76.1 nM corresponded to half-maximal inhibition (IC50).

Turning to `N#Cc1cnc2nc(Nc3ccc(CN4CCOCC4)cc3)sc2c1Nc1ccc(Cl)cc1Cl` [Cpd 34, 7-(2,4-dichloro-phenylamino)-2-(4-morpholin-4-ylmethyl-phenylamino)-thiazolo[4,5-b]pyridine-6-carbonitrile], the IC50 came to 1450 nM.

Take `N#Cc1cnc2nc(Nc3ccc(NCCN)nc3)sc2c1Nc1ccc(F)c(Cl)c1` [Cpd 30, 2-[6-(2-amino-ethylamino)-pyridin-3-ylamino]-7-(3-chloro-4-fluoro-phenylamino)-thiazolo[4,5-b]pyridine-6-carbonitrile]: the IC50 turned out to be 67.7 nM.

Consider `N#Cc1cnc2nc(Nc3ccc(CN4CCC(N)CC4)cc3)sc2c1Nc1ccc(F)c(Cl)c1` [Cpd 31, 2-[4-(4-amino-piperidin-1-ylmethyl)-phenylamino]-7-(3-chloro-4-fluoro-phenylamino)-thiazolo[4,5-b]pyridine-6-carbonitrile], for which half-maximal inhibition (IC50) required 60.4 nM.

Regarding `N#Cc1cnc2nc(Nc3ccc(CN4CCC[C@H]4CO)cc3)sc2c1Nc1ccc(F)c(Cl)c1` [Cpd 6, 7-(3-chloro-4-fluoro-phenylamino)-2-{4-[(2S)-2-hydroxymethyl-pyrrolidin-1-ylmethyl]-phenylamino}-thiazolo[4,5-b]pyridine-6-carbonitrile], the IC50 amounted to 53 nM.

Turning to `C#Cc1cccc(Nc2c(C#N)cnc3nc(NCCCN4CCOCC4)sc23)c1` [Cpd 9, 7-(3-ethynyl-phenylamino)-2-(3-morpholin-4-yl-propylamino)-thiazolo[4,5-b]pyridine-6-carbonitrile], the half-inhibitory concentration (IC50) turned out to be 2630 nM.

The compound `N#Cc1cnc2nc(Nc3ccc(CNC[C@H]4CCCO4)cc3)sc2c1Nc1ccc(F)c(Cl)c1` [Cpd 21, 7-(3-chloro-4-fluoro-phenylamino)-2-[4-({[(2R)-tetrahydro-furan-2-ylmethyl]-amino}-methyl)-phenylamino]-thiazolo[4,5-b]pyridine-6-carbonitrile] returned a concentration for half-maximal inhibition (IC50) of 44.6 nM.

Regarding `N#Cc1cnc2nc(NCc3ccc(CN4CCOCC4)cc3)sc2c1Nc1ccc(F)c(Cl)c1` [Cpd 22, 7-(3-chloro-4-fluoro-phenylamino)-2-(4-morpholin-4-ylmethyl-benzylamino)-thiazolo[4,5-b]pyridine-6-carbonitrile], it took 853 nM to reach half-maximal inhibition (IC50).

As for `C#Cc1cccc(Nc2c(C#N)cnc3nc(NCCN4CCOCC4)sc23)c1` [Cpd 13, 7-(3-ethynyl-phenylamino)-2-(2-morpholin-4-yl-ethylamino)-thiazolo[4,5-b]pyridine-6-carbonitrile], the midpoint of inhibition, the IC50, lay at 3280 nM.

`N#Cc1cnc2nc(Nc3ccc(O)nc3)sc2c1Nc1ccc(F)c(Cl)c1` [Cpd 27, 7-(3-chloro-4-fluoro-phenylamino)-2-(6-hydroxy-pyridin-3-ylamino)-thiazolo[4,5-b]pyridine-6-carbonitrile] showed a 50% inhibitory concentration (IC50) of 207 nM.

Consider `N#Cc1cnc2nc(Nc3ccc(CN4CCOCC4)cc3)sc2c1Nc1ccc(F)c(Cl)c1` [Cpd 2, 7-(3-chloro-4-fluoro-phenylamino)-2-(4-morpholin-4-ylmethyl-phenylamino)-thiazolo[4,5-b]pyridine-6-carbonitrile], for which the half-maximal inhibitory concentration (IC50) was 78 nM.

As for `COCCN(CCOC)Cc1ccc(Nc2nc3ncc(C#N)c(Nc4ccc(F)c(Cl)c4)c3s2)cc1` [Cpd 4, 2-(4-{[bis-(2-methoxy-ethyl)-amino]-methyl}-phenylamino)-7-(3-chloro-4-fluoro-phenylamino)-thiazolo[4,5-b]pyridine-6-carbonitrile], 49 nM corresponded to half-maximal inhibition (IC50).

For the compound `N#Cc1cnc2nc(Nc3ccc(Cl)nc3)sc2c1Nc1ccc(F)c(Cl)c1` [Cpd 28, 7-(3-chloro-4-fluoro-phenylamino)-2-(6-chloro-pyridin-3-ylamino)-thiazolo[4,5-b]pyridine-6-carbonitrile], the concentration for half-maximal inhibition (IC50) was found to be 327 nM.

Compound `CN(Cc1ccc(Nc2nc3ncc(C#N)c(Nc4ccc(F)c(Cl)c4)c3s2)cc1)C1CCOCC1` [Cpd 16, 7-(3-chloro-4-fluoro-phenylamino)-2-(4-{[methyl-(tetrahydro-pyran-4-yl)-amino]-methyl}-phenylamino)-thiazolo[4,5-b]pyridine-6-carbonitrile] came in with an IC50 of 76.4 nM.

In the case of `N#Cc1cnc2nc(NCCCN3CCOCC3)sc2c1Nc1ccc(F)c(Cl)c1` [Cpd 8, 7-(3-chloro-4-fluoro-phenylamino)-2-(3-morpholin-4-yl-propylamino)-thiazolo[4,5-b]pyridine-6-carbonitrile], the midpoint of inhibition, the IC50, lay at 2630 nM.

`C#Cc1cccc(Nc2c(C#N)cnc3nc(Nc4ccc(CN5CCC[C@H]5CO)cc4)sc23)c1` [Cpd 11, 7-(3-ethynyl-phenylamino)-2-{4-[(2S)2-hydroxymethyl-pyrrolidin-1-ylmethyl]-phenylamino}-thiazolo[4,5-b]pyridine-6-carbonitrile] had an IC50 of 41.7 nM.

For the compound `N#Cc1cnc2nc(Nc3ccc(S(=O)(=O)NCCN4CCOCC4)cc3)sc2c1Nc1ccc(F)c(Cl)c1` [Cpd 7, 4-[7-(3-chloro-4-fluoro-phenylamino)-6-cyano-thiazolo[4,5-b]pyridin-2-ylamino]-N-(2-morpholin-4-yl-ethyl)-benzenesulfonamide], the concentration for half-maximal inhibition (IC50) is 28.5 nM.

`COCCN(CCOC)S(=O)(=O)c1ccc(Nc2nc3ncc(C#N)c(Nc4ccc(F)c(Cl)c4)c3s2)cc1` [Cpd 5, 4-[7-(3-chloro-4-fluoro-phenylamino)-6-cyano-thiazolo[4,5-b]pyridin-2-ylamino]-N,N-bis-(2-methoxy-ethyl)-benzenesulfonamide] gave an IC50 of 63.7 nM.

Compound `CCc1nccn1Cc1ccc(Nc2nc3ncc(C#N)c(Nc4ccc(F)c(Cl)c4)c3s2)cc1` [Cpd 1, 7-(3-chloro-4-fluoro-phenylamino)-2-[4-(2-ethyl-imidazol-1-ylmethyl)-phenylamino]-thiazolo[4,5-b]pyridine-6-carbonitrile] registered a concentration for half-maximal inhibition (IC50) of 22.6 nM.

Turning to `N#Cc1cnc2nc(Nc3ccc(NCCCN4CCOCC4)nc3)sc2c1Nc1ccc(F)c(Cl)c1` [Cpd 29, 7-(3-chloro-4-fluoro-phenylamino)-2-[6-(3-morpholin-4-yl-propylamino)-pyridin-3-ylamino]-thiazolo[4,5-b]pyridine-6-carbonitrile], half-maximal inhibition (IC50) was put at 69.6 nM.

Turning to `N#Cc1cnc2nc(Nc3ccc(CN4CCOCC4)cc3)sc2c1Nc1cccc(Cl)c1` [Cpd 19, 7-(3-chloro-phenylamino)-2-(4-morpholin-4-ylmethyl-phenylamino)-thiazolo[4,5-b]pyridine-6-carbonitrile], the half-inhibitory concentration (IC50) worked out at 79.5 nM.

`N#Cc1cnc2nc(NCCN3CCOCC3)sc2c1Nc1cccc(Cl)c1` [Cpd 12, 7-(3-chloro-phenylamino)-2-(2-morpholin-4-yl-ethylamino)-thiazolo[4,5-b]pyridine-6-carbonitrile] came in with an IC50 of 15800 nM.

`CN(C)Cc1ccc(Nc2nc3ncc(C#N)c(Nc4ccc(F)c(Cl)c4)c3s2)cc1Cl` [Cpd 18, 2-(3-chloro-4-dimethylaminomethyl-phenylamino)-7-(3-chloro-4-fluoro-phenylamino)-thiazolo[4,5-b]pyridine-6-carbonitrile] displayed an IC50 of 85.7 nM.

These data come from patent publication US7659284B2, “Thiazolopyridine kinase inhibitors” (Janssen Pharmaceutica NV, priority 2004, dated 2010).
